Reference: patent US20240264159A1 (priority 2021, published 2024)

Target: Spike SARS-CoV-2 foreign nanoparticles / coated host ACE2 nanoparticles (Severe acute respiratory syndrome coronavirus 2, UniProt P0DTC2, D614G)
Assay type: biochemical

Q: C[C@@H]1O[C@@H](O[C@H]2C[C@@H](O)[C@]3(CO)[C@H]4[C@H](O)C[C@]5(C)[C@@H](C6=CC(=O)OC6)CC[C@]5(O)[C@@H]4CC[C@]3(O)C2)[C@H](O)[C@H](O)[C@H]1O [ouabain] was tested. Which “neutralization/blocking of fusion, coated host ACE2 nanoparticles” value did it give?
A: Neutralization was further blocked
